In one assay the target is T1, IDH2 R172K (Homo sapiens, UniProt P48735, R172K).
T1 sequence (P48735 40-452 R172K): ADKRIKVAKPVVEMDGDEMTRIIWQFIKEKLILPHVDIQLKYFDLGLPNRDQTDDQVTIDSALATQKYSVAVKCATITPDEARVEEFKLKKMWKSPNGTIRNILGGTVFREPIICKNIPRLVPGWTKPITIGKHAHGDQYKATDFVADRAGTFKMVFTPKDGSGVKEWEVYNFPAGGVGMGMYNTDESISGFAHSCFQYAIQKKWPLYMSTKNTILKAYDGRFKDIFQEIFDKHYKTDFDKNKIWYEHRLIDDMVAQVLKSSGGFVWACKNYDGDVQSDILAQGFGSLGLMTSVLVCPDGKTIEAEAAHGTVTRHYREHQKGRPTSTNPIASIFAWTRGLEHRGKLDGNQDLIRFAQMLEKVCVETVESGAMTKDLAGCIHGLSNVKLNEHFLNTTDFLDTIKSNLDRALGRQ
The assay can be described thus: IDH2 R172K enzymatic assay (NADPH cofactor depletion, diaphorase/resazurin readout). The class given is biochemical. The note with it: read-out: Enz R172K. Summed up: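 Residual NADPH is read out as resorufin fluorescence after quenching with 36 μg/ml diaphorase and 60 μM resazurin in stop mix. The stop follows a 1 h room-temperature reaction started by a substrate mix of NADPH (50 μM) and α-KG (6.3 mM), with compound preincubated with enzyme for 1 h beforehand.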

Another assay deals with T2, IDH2 R140Q (Homo sapiens, UniProt P48735, R140Q).
T2 sequence (P48735 40-452 R140Q): T1 sequence (P48735 40-452 R172K) with R101Q, K133R
Kind of assay: IDH2 R140Q enzymatic assay (cofactor depletion, similar format). The class given is biochemical. The note with it: read-out: Enz R140Q.

Assay [1] concerns U87MG pLVX-IDH2 R140Q-neo cells. The assay can be described thus: U87MG pLVX-IDH2 R140Q-neo cell based assay, 2-HG in media by LC-MS at 48 hours. The note with it: Homo sapiens, U-87 MG. Summed up:
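2-HG secreted into the medium was measured by LC-MS after 48 h of compound treatment (0.2% DMSO final) of U87MG pLVX-IDH2 R140Q-neo cells in DMEM/10% FBS. The same wells were assayed at 72 h by CellTiter-Glo luminescence for effects on growth.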

The values below come from US9512107B2, “Therapeutically active compositions and their methods of use” (Agios Pharmaceuticals, Inc., priority 2012, dated 2016).

Molecules are shown by their SMILES. Changes are numbered by the printed parent chain.

For `CC(C)Nc1nc(Nc2ccnc(C(F)(F)F)c2)nc(-c2cccc(C(O)C(F)(F)F)c2)n1` (stereo not drawn) [Compound 652, 2,2,2-trifluoro-1-(3-(4-(isopropylamino)-6-((2-(trifluoromethyl)pyridin-4-yl)amino)-1,3,5-triazin-2-yl)phenyl)ethanol], the IC50 (on IDH2 R172K; on IDH2 R140Q; in assay [1]) was 100 to 1000 nM each time.

`CC(C)Nc1nc(Nc2ccnc(C(F)(F)F)c2)nc(-c2cccc([S+](C)[O-])c2)n1` (stereo not drawn) [Compound 653, N-Isopropyl-6-(3-methanesulfinyl-phenyl)-N′-(2-trifluoromethyl-pyridin-4-yl)-[1,3,5]triazine-2,4-diamine]: the IC50 on IDH2 R172K was 100 to 1000 nM; on IDH2 R140Q, 100 to 1000 nM; in assay [1], less than 100 nM.

As to `CC(C)Nc1nc(Nc2ccnc(C(F)(F)F)c2)nc(-c2cccc(CN)c2)n1` [Compound 654, 6-(3-(aminomethyl)phenyl)-N2-isopropyl-N4-(2-(trifluoromethyl)pyridin-4-yl)-1,3,5-triazine-2,4-diamine], the values for the IC50 (at IDH2 R172K; at IDH2 R140Q; in assay [1]) were more than 10000 nM, 100 to 1000 nM and less than 100 nM, respectively.

Regarding `COc1cc(Cl)cc(-c2nc(Nc3ccnc(C(F)(F)F)c3)nc(NC(C)C)n2)c1` [Compound 655, 6-(3-chloro-5-methoxyphenyl)-N2-isopropyl-N4-(2-(trifluoromethyl)pyridin-4-yl)-1,3,5-triazine-2,4-diamine], the IC50 (on IDH2 R172K; on IDH2 R140Q; in assay [1]) was 100 to 1000 nM throughout.

Take `CC(C)Nc1nc(Nc2ccnc(C(F)(F)F)c2)nc(-c2cccc(S(C)(=O)=O)c2)n1` [Compound 657, N-Isopropyl-6-(3-methanesulfonyl-phenyl)-N′-(2-trifluoromethyl-pyridin-4-yl)-[1,3,5]triazine-2,4-diamine]: the IC50 was 100 to 1000 nM on IDH2 R172K, 100 to 1000 nM on IDH2 R140Q and less than 100 nM in assay [1].

On to `CC(C)Nc1nc(Nc2ccnc(C(F)(F)F)c2)nc(-c2cc(O)cc(F)c2)n1` [Compound 658, 3-Fluoro-5-[4-isopropylamino-6-(2-trifluoromethyl-pyridin-4-ylamino)-[1,3,5]triazin-2-yl]-phenol], for which the values for the IC50 (at IDH2 R172K; at IDH2 R140Q; in assay [1]) were less than 100 nM, 100 to 1000 nM and less than 100 nM, respectively.

With `CC(C)(C)OC(=O)N1CCC(Nc2nc(Nc3ccccc3)nc(-c3ccccc3)n2)CC1` [Compound 667, 4-(4-Phenyl-6-phenylamino-[1,3,5]triazin-2-ylamino)-piperidine-1-carboxylic acid tert-butyl ester], the IC50 (at IDH2 R172K; on IDH2 R140Q; in assay [1]) was 100 to 1000 nM each time.

`CC(C)Nc1nc(Nc2ccnc(C3(C#N)CC3)c2)nc(-c2cccc(C(F)(F)F)n2)n1` [Compound 669, 1-{4-[4-Isopropylamino-6-(6-trifluoromethyl-pyridin-2-yl)-[1,3,5]triazin-2-ylamino]-pyridin-2-yl}-cyclopropanecarbonitrile]: the IC50 is less than 100 nM on IDH2 R172K, 100 to 1000 nM at IDH2 R140Q and less than 100 nM in assay [1].

For `CC(C)(O)CNc1nc(Nc2cnc(F)c(Cl)c2)nc(-c2cccc(C(F)(F)F)n2)n1` [Compound 670, 1-[4-(5-Chloro-6-fluoro-pyridin-3-ylamino)-6-(6-trifluoromethyl-pyridin-2-yl)-[1,3,5]triazin-2-ylamino]-2-methyl-propan-2-ol], the IC50 at IDH2 R172K was 100 to 1000 nM; at IDH2 R140Q it was 100 to 1000 nM; in assay [1] it was less than 100 nM.

As for `CC(C)Nc1nc(Nc2ccnc(C(C)(C)C#N)c2)nc(-c2cccc(C(F)(F)F)n2)n1` [Compound 671, 2-{4-[4-Isopropylamino-6-(6-trifluoromethyl-pyridin-2-yl)-[1,3,5]triazin-2-ylamino]-pyridin-2-yl}-2-methyl-propionitrile], the IC50 at IDH2 R172K is less than 100 nM; on IDH2 R140Q, 100 to 1000 nM; in assay [1] it was less than 100 nM.

Consider `CC(C)Nc1nc(Nc2ccnc(CC#N)c2)nc(-c2cccc(C(F)(F)F)n2)n1` [Compound 672, {4-[4-Isopropylamino-6-(6-trifluoromethyl-pyridin-2-yl)-[1,3,5]triazin-2-ylamino]-pyridin-2-yl}-acetonitrile], for which the IC50 on IDH2 R172K is 100 to 1000 nM; at IDH2 R140Q it was 100 to 1000 nM; in assay [1], less than 100 nM.

`CC(C)Nc1nc(Nc2ccnc(C(F)F)c2)nc(-c2cccc(C(F)F)n2)n1` [Compound 673, 6-(6-Difluoromethyl-pyridin-2-yl)-N-(2-difluoromethyl-pyridin-4-yl)-N′-isopropyl-[1,3,5]triazine-2,4-diamine]: the IC50 at IDH2 R172K is less than 100 nM; at IDH2 R140Q, 100 to 1000 nM; in assay [1], less than 100 nM.

Turning to `CC(C)Nc1nc(Nc2ccnc(C3(O)CC3)c2)nc(-c2cccc(C(F)(F)F)n2)n1` [Compound 674, 1-{4-[4-Isopropylamino-6-(6-trifluoromethyl-pyridin-2-yl)-[1,3,5]triazin-2-ylamino]-pyridin-2-yl}-cyclopropanol], the IC50 at IDH2 R172K was 100 to 1000 nM; at IDH2 R140Q, 100 to 1000 nM; in assay [1], less than 100 nM.

For `CC(C)Nc1nc(Nc2ccnc(C(F)F)c2)nc(-c2cccc(C(C)(F)F)n2)n1` [Compound 675, 6-[6-(1,1-Difluoro-ethyl)-pyridin-2-yl]-N-(2-difluoromethyl-pyridin-4-yl)-N′-isopropyl-[1,3,5]triazine-2,4-diamine], the IC50 was less than 100 nM at IDH2 R172K, 100 to 1000 nM on IDH2 R140Q and less than 100 nM in assay [1].

Regarding `CC(C)Nc1nc(Nc2ccnc(CF)c2)nc(-c2cccc(C(F)(F)F)n2)n1` [Compound 676, N-(2-Fluoromethyl-pyridin-4-yl)-N′-isopropyl-6-(6-trifluoromethyl-pyridin-2-yl)-[1,3,5]triazine-2,4-diamine], the IC50 was less than 100 nM at IDH2 R172K, 100 to 1000 nM on IDH2 R140Q and less than 100 nM in assay [1].

With `CC(C)Nc1nc(Nc2ccnc(C(C)(C)C#N)c2)nc(-c2cccc(C(C)(F)F)n2)n1` [Compound 677, 2-(4-{4-[6-(1,1-Difluoro-ethyl)-pyridin-2-yl]-6-isopropylamino-[1,3,5]triazin-2-ylamino}-pyridin-2-yl)-2-methyl-propionitrile], the IC50 was less than 100 nM at IDH2 R172K, 100 to 1000 nM at IDH2 R140Q and less than 100 nM in assay [1].

In the case of `CC(C)(O)CNc1nc(Nc2ccnc(C(C)(C)C#N)c2)nc(-c2cccc(C(F)(F)F)n2)n1` [Compound 678, 2-{4-[4-(2-Hydroxy-2-methyl-propylamino)-6-(6-trifluoromethyl-pyridin-2-yl)-[1,3,5]triazin-2-ylamino]-pyridin-2-yl}-2-methyl-propionitrile], the results for the IC50 (at IDH2 R172K; at IDH2 R140Q; in assay [1]) were 100 to 1000 nM, 1000 to 10000 nM and less than 100 nM, respectively.

On to `COC(=O)Nc1cccc(-c2nc(Nc3ccnc(C(F)(F)F)c3)nc(NC(C)C)n2)n1` [Compound 679, Methyl(6-(4-(isopropylamino)-6-((2-(trifluoromethyl)pyridin-4-yl)amino)-1,3,5-triazin-2-yl)pyridin-2-yl)carbamate], for which the IC50 was more than 10000 nM at IDH2 R172K, 100 to 1000 nM on IDH2 R140Q and 100 to 1000 nM in assay [1].

Consider `CC(C)Nc1nc(Nc2ccnc(C(F)(F)F)c2)nc(-c2cccc(N)n2)n1` [Compound 687, 6-(6-aminopyridin-2-yl)-N2-isopropyl-N4-(2-(trifluoromethyl)pyridin-4-yl)-1,3,5-triazine-2,4-diamine], for which the values for the IC50 (on IDH2 R172K; on IDH2 R140Q; in assay [1]) were less than 100 nM, 100 to 1000 nM and less than 100 nM, respectively.

Take `CC(C)(C)CNc1nc(Nc2ccnc(C(F)(F)F)c2)nc(-c2cccc(N)n2)n1` [Compound 689, 6-(6-aminopyridin-2-yl)-N2-neopentyl-N4-(2-(trifluoromethyl)pyridin-4-yl)-1,3,5-triazine-2,4-diamine]: the IC50 on IDH2 R172K was less than 100 nM; on IDH2 R140Q, 100 to 1000 nM; in assay [1], less than 100 nM.

Consider `CC(C)CNc1nc(Nc2ccnc(C(F)(F)F)c2)nc(-c2cccc(N)n2)n1` [Compound 690, 6-(6-aminopyridin-2-yl)-N2-isobutyl-N4-(2-(trifluoromethyl)pyridin-4-yl)-1,3,5-triazine-2,4-diamine], for which the IC50 is less than 100 nM on IDH2 R172K, 100 to 1000 nM on IDH2 R140Q and less than 100 nM in assay [1].
